According to US8501770B2 (ArQule, Inc., priority 2009, dated 2013):
Counter-ions that a name gives are not always drawn.

Target: Full-length inactive AKT1 (Homo sapiens, UniProt P31749)
Test: Inactive Akt Alpha Screen Assay
Format: biochemical
Settings: values not marked with "*": AlphaScreen assay; read-out: Akt1 IC50, (AlphaScreen)
Experimental: AKT1 activity was assayed using the GSK3-derived biotinylated peptide substrate, crosstide (biotin-[…]), and AlphaScreen™ (Amplified Luminescent Proximity Homogeneous Assay) technology. AKT1 activation was achieved by the addition of the activating kinases PDK1 and MAPKAPK2, lipid vesicles, and ATP. The extent of peptide phosphorylation was determined using a phospho-AKT substrate antibody and acceptor beads conjugated to Protein A and donor beads conjugated to streptavidin that bind to the biotin on the peptide. Excitation of the donor beads converted ambient oxygen to excited singlet oxygen which, when in close proximity to acceptor beads, reacted with acceptor beads resulting in signal amplification.
Assay plates were incubated for 90 minutes at room temperature in the dark, and the plates were read on a Perkin Elmer Envision Multilabel plate reader (excitation wavelength: […], emission wavelength: 570 nm).

Chain of Full-length inactive AKT1 (P31749 whole entry): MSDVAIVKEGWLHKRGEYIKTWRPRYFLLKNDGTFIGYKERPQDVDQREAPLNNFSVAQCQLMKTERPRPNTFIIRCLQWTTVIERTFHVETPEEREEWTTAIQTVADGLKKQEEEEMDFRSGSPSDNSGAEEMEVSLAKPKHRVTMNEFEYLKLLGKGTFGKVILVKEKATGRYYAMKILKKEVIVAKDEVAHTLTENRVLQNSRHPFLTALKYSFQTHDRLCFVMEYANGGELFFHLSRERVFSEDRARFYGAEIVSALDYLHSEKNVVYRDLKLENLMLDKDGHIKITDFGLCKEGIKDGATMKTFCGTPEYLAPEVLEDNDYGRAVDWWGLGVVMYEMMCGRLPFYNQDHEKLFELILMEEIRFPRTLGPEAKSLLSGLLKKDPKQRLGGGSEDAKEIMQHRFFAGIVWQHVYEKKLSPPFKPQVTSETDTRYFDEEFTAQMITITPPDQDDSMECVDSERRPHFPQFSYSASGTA

Compound	IC50
COc1ccc2nc(-c3cccnc3N)n(-c3ccc(C(C)(C)C)cc3)c2n1 [Example 8]	20600 nM
CC(C)(C)OC(=O)NCc1ccc(-n2c(-c3cccnc3N)nc3cccnc32)cc1 [Example 9]	2470 nM
CNS(=O)(=O)Cc1ccc(-n2c(-c3cccnc3N)nc3cccnc32)cc1 [Example 13]	507 nM
Nc1ncccc1-c1nc2cccnc2n1-c1ccc(CN2CCOCC2)cc1 [Example 15]	1790 nM
Nc1ncccc1-c1nc2cccnc2n1-c1ccc(C2CCCCC2)cc1 [Example 17]	3900 nM
Nc1ncccc1-c1nc2cccnc2n1-c1ccc(CNC(=O)c2ccccn2)cc1 [Example 19]	344 nM
Nc1ncccc1-c1nc2cccnc2n1-c1ccc(CNC(=O)c2nccc3ccccc23)cc1 [Example 20]	354 nM
Nc1ncccc1-c1nc2cccnc2n1-c1ccc(S(=O)(=O)N2CCCCC2)cc1 [Example 38]	4310 nM
Nc1ncccc1-c1nc2cccnc2n1-c1ccc(CNC(=O)CC(c2ccccc2)c2ccccc2)cc1 [Example 42]	2010 nM
CC(=O)Nc1ccccc1C(=O)NCc1ccc(-n2c(-c3cccnc3N)nc3cccnc32)cc1 [Example 43]	1410 nM
Nc1ncccc1-c1nc2cccnc2n1-c1ccc(CNC(=O)c2ccc(OC(F)(F)F)cc2)cc1 [Example 47]	378 nM
COc1ccccc1C(=O)NCc1ccc(-n2c(-c3cccnc3N)nc3cccnc32)cc1 [Example 50]	2610 nM
CC(C)(C)C(=O)NCc1ccc(-n2c(-c3cccnc3N)nc3cccnc32)cc1 [Example 52, N-{4-[2-(2-aminopyridin-3-yl)-3H-imidazo[4,5-b]pyridin-3-yl]benzyl}-2,2-dimethylpropanamide]	2770 nM
COc1ccc(C(=O)NCc2ccc(-n3c(-c4cccnc4N)nc4cccnc43)cc2)cc1 [Example 54]	711 nM
CNc1ccccc1C(=O)NCc1ccc(-n2c(-c3cccnc3N)nc3cccnc32)cc1 [Example 57]	1520 nM
Nc1ncccc1-c1nc2cccnc2n1-c1ccc(CNC(=O)c2ccc(C(F)(F)F)cc2)cc1 [Example 63]	790 nM
Nc1ncccc1-c1nc2cccnc2n1-c1ccc(CNC(=O)c2ccc3c(c2)CCO3)cc1 [Example 64]	1130 nM
CC(=O)Nc1ccc(C(=O)NCc2ccc(-n3c(-c4cccnc4N)nc4cccnc43)cc2)cc1 [Example 71]	605 nM

Compound	IC50
Nc1ncccc1-c1nc2cccnc2n1-c1ccc(CNC(=O)CC2CCCC2)cc1 [Example 73]	2610 nM
COc1cccc(C(=O)NCc2ccc(-n3c(-c4cccnc4N)nc4cccnc43)cc2)c1 [Example 77]	417 nM
Nc1ncccc1-c1nc2cccnc2n1-c1ccc(CNC(=O)c2ccccc2-n2cccc2)cc1 [Example 78]	307 nM
CC1=NN(c2ccc(C(=O)NCc3ccc(-n4c(-c5cccnc5N)nc5cccnc54)cc3)cc2)C(=O)C1 [Example 79]	1110 nM
Nc1ncccc1-c1nc2cccnc2n1-c1ccc(CNC(=O)c2ccc(F)cc2)cc1 [Example 81]	1370 nM
Nc1ncccc1-c1nc2cccnc2n1-c1ccc(CNC(=O)Nc2ccccc2Cl)cc1 [Example 90]	394 nM
Nc1ccc(-n2c(-c3cccnc3N)nc3cccnc32)cc1 [Example 106, hydrochloride]	2530 nM
Nc1ncccc1-c1nc2cccnc2n1-c1ccc(CC(=O)N2CCC(n3c(=O)[nH]c4ccccc43)CC2)cc1 [Example 107]	1430 nM
Cn1ccc(S(=O)(=O)NCc2ccc(-n3c(-c4cccnc4N)nc4cccnc43)cc2)n1 [Example 109, hydrochloride]	860 nM
CCOC(=O)Cc1ccc(-n2c(-c3cccnc3N)nc3cccnc32)cc1 [Example 113]	610 nM
Cn1c(NC(=O)Cc2ccc(-n3c(-c4cccnc4N)nc4cccnc43)cc2)nc2ccccc21 [Example 114]	579 nM
COc1ccc(NC(=O)Cc2ccc(-n3c(-c4cccnc4N)nc4cccnc43)cc2)c(OC)c1 [Example 116]	595 nM
Nc1ccccc1-c1cnc2c(c1)nc(-c1cccnc1N)n2-c1ccc(CNC(=O)c2ccccc2)cc1 [Example 134, N-{4-[6-(2-aminophenyl)-2-(2-aminopyridin-3-yl)-3H-imidazo[4,5-b]pyridin-3-yl]benzyl}benzamide]	1600 nM
CCOc1cccc(-c2cnc3c(c2)nc(-c2cccnc2N)n3-c2ccc(CNC(=O)c3ccccc3)cc2)c1 [Example 135, N-{4-[2-(2-aminopyridin-3-yl)-6-(3-ethoxyphenyl)-3H-imidazo[4,5-b]pyridin-3-yl]benzyl}benzamide]	1800 nM
Nc1ncccc1-c1nc2cc(-c3ccc4cc[nH]c4c3)cnc2n1-c1ccc(CNC(=O)c2ccccc2)cc1 [Example 139, N-{4-[2-(2-aminopyridin-3-yl)-6-(1H-indol-6-yl)-3H-imidazo[4,5-b]pyridin-3-yl]benzyl}benzamide]	360 nM
Cc1cccc(-c2cnc3c(c2)nc(-c2cccnc2N)n3-c2ccc(CNC(=O)c3ccccc3)cc2)c1 [Example 140, N-{4-[2-(2-aminopyridin-3-yl)-6-(3-methylphenyl)-3H-imidazo[4,5-b]pyridin-3-yl]benzyl}benzamide]	1100 nM
Nc1ncccc1-c1nc2cc(Br)cnc2n1-c1ccc(CNS(=O)(=O)c2ccccc2)cc1 [Example 146, N-{4-[2-(2-aminopyridin-3-yl)-6-bromo-3H-imidazo[4,5-b]pyridin-3-yl]benzyl}benzenesulfonamide]	420 nM
Nc1ncccc1-c1nc2cc(Br)cnc2n1-c1ccc(CNS(=O)(=O)c2ccccc2Cl)cc1 [Example 147, N-{4-[2-(2-aminopyridin-3-yl)-6-bromo-3H-imidazo[4,5-b]pyridin-3-yl]benzyl}-2-chlorobenzenesulfonamide]	440 nM

Now those with a lower IC50, led by results:

IC50	Compound
211 nM	Nc1ncccc1-c1nc2cccnc2n1-c1ccc(CNC(=O)c2cccnc2)cc1 [Example 12]
205 nM	Nc1ncccc1-c1nc2cccnc2n1-c1ccc(CNCc2ccccc2)cc1 [Example 37]
89 nM	Nc1ncccc1-c1nc2cccnc2n1-c1ccc(CNC(=O)c2ccc(Br)cc2)cc1 [Example 40]
196 nM	Nc1ncccc1-c1nc2cccnc2n1-c1ccc(CNC(=O)c2cccs2)cc1 [Example 48]
84 nM	Nc1ncccc1-c1nc2cccnc2n1-c1ccc(CNC(=O)c2cccc(F)c2)cc1 [Example 49]
122 nM	Cc1cccc(C(=O)NCc2ccc(-n3c(-c4cccnc4N)nc4cccnc43)cc2)c1 [Example 53]
189 nM	Cc1ccccc1C(=O)NCc1ccc(-n2c(-c3cccnc3N)nc3cccnc32)cc1 [Example 70]
179 nM	Nc1ncccc1-c1nc2cccnc2n1-c1ccc(CNC(=O)C2Cc3ccccc3C2)cc1 [Example 75]
142 nM	Nc1ncccc1-c1nc2cccnc2n1-c1ccc(CNS(=O)(=O)c2cccnc2)cc1 [Example 94]
158 nM	Nc1ncccc1-c1nc2cccnc2n1-c1ccc(CNS(=O)(=O)c2ccsc2)cc1 [Example 100]
233 nM	COc1cccc(NC(=O)Cc2ccc(-n3c(-c4cccnc4N)nc4cccnc43)cc2)c1 [Example 119, hydrochloride]
160 nM	Cc1ccc2nc(NC(=O)Cc3ccc(-n4c(-c5cccnc5N)nc5cccnc54)cc3)sc2c1 [Example 121, hydrochloride]
128 nM	Cc1ccc2cc(NC(=O)Cc3ccc(-n4c(-c5cccnc5N)nc5cccnc54)cc3)ccc2n1 [Example 123, hydrochloride]
108 nM	Cc1ccc(NC(=O)Cc2ccc(-n3c(-c4cccnc4N)nc4cccnc43)cc2)cc1 [Example 127]
216 nM	COc1ccc(NC(=O)Cc2ccc(-n3c(-c4cccnc4N)nc4cccnc43)cc2)cc1F [Example 128]
106 nM	Nc1ncccc1-c1nc2cc(F)cnc2n1-c1ccc(CNC(=O)c2ccccc2)cc1 [Example 133, N-(4-(2-(2-aminopyridin-3-yl)-6-fluoro-3H-imidazo[4,5-b]pyridin-3-yl)benzyl)benzamide]
50 nM	Nc1ncccc1-c1nc2cc(-c3ccsc3)cnc2n1-c1ccc(CNC(=O)c2ccccc2)cc1 [Example 137, N-{4-[2-(2-aminopyridin-3-yl)-6-thiophen-3-yl-3H-imidazo[4,5-b]pyridin-3-yl]benzyl}benzamide]
120 nM	CS(=O)(=O)c1ccc(-c2cnc3c(c2)nc(-c2cccnc2N)n3-c2ccc(CNC(=O)c3ccccc3)cc2)cc1 [Example 138, N-(4-{2-(2-aminopyridin-3-yl)-6-[4-(methylsulfonyl)phenyl]-3H-imidazo[4,5-b]pyridin-3-yl}benzyl)benzamide]
190 nM	Nc1ncccc1-c1nc2cc(-c3cncnc3)cnc2n1-c1ccc(CNC(=O)c2ccccc2)cc1 [Example 142, N-{4-[2-(2-aminopyridin-3-yl)-6-pyrimidin-5-yl-3H-imidazo[4,5-b]pyridin-3-yl]benzyl}benzamide]
170 nM	Nc1ncccc1-c1nc2cc(-c3ccc(Br)cc3)cnc2n1-c1ccc(CNC(=O)c2ccccc2)cc1 [Example 143, N-{4-[2-(2-aminopyridin-3-yl)-6-(4-bromophenyl)-3H-imidazo[4,5-b]pyridin-3-yl]benzyl}benzamide]
160 nM	Nc1ncccc1-c1nc2cc(-c3ccncc3)cnc2n1-c1ccc(CNC(=O)c2ccccc2)cc1 [Example 145, N-{4-[2-(2-aminopyridin-3-yl)-6-pyridin-4-yl-3H-imidazo[4,5-b]pyridin-3-yl]benzyl}benzamide]
240 nM	COc1ccc(S(=O)(=O)NCc2ccc(-n3c(-c4cccnc4N)nc4cc(Br)cnc43)cc2)cc1OC [Example 148, N-{4-[2-(2-aminopyridin-3-yl)-6-bromo-3H-imidazo[4,5-b]pyridin-3-yl]benzyl}-3,4-dimethoxybenzenesulfonamide]
